Measurements taken from US12610948B2, “Choline chloride adjuvant for fatty acid based biopesticide” (Stratacor, Inc., priority 2020, dated 2026).

How the values were obtained:
[1] = test system: stable flies (Stomoxys calcitrans); assay: Laboratory Petri dish filter paper incapacitation test, stable flies; type: in vivo; conditions: 1 ml on 9 cm filter paper in Petri dish
Source text: (§1) Mixed sex stable flies (Stomoxys calcitrans) were obtained as pupae from a colony at the University of Nebraska West Central Research and Extension Center, North Platte, Nebraska. Mixed sex horn flies (Haematobia irritans), sensitive and knockdown resistant (Kdr), were obtained as pupae from a colony at The Center for Animal Health and Food Safety, New Mexico State University, Las Cruces, New Mexico. Adult horn and stable flies were allowed to emerge in 1 cubic foot cages at approximately 80 degrees Fahrenheit and were maintained on citrated whole blood (Quad Five, Rygate, Montana). Mixed sex house flies (Musca domestica) were obtained as pupae from Carolina Biological, Charlotte, North Carolina Adults were allowed to emerge in 1 cubic foot cages at approximately 80 degrees Fahrenheit and were maintained on water and sugar cubes. Mixed sex German cockroaches (Blattella germanica) were obtained as adults from Carolina Biological. Prior to use, roaches were kept with the supplied food source in paper towels contained in 1 cubic foot cages. Flies were used 4-6 days post emergence.
(§2) An aqueous emulsion of the octanoic/decanoic acid mix (C8C10) was prepared by addition to an aqueous solution of the sodium salts of the fatty acids, prepared by mixing equal molar amounts of sodium hydroxide and fatty acid.

[2] = test system: Sensitive Horn Fly (Haematobia irritans); assay: Laboratory Petri dish incapacitation test, sensitive horn flies; type: in vivo; conditions: C8C10 organic aqueous emulsion, sensitive strain
Source text: as §1, §2

[3] = test system: Knockdown Resistant (Kdr) Horn Fly (Haematobia irritans); assay: Laboratory Petri dish incapacitation test, knockdown resistant (Kdr) horn flies; type: in vivo; conditions: C8C10 organic aqueous emulsion, Kdr strain
Source text: as §1, §2

[4] = test system: house flies (Musca domestica); assay: Laboratory Petri dish incapacitation test, house flies; type: in vivo; conditions: aqueous emulsion, N = 3-4
Source text: as §1, §2

[5] = test system: German cockroaches (Blattella germanica); assay: Laboratory Petri dish incapacitation test, German cockroaches; type: in vivo; conditions: aqueous emulsion, 6 roaches per dish
Source text: as §1, §2

[6] = test system: insect; conditions: 1% choline chloride in distilled water
Source text: However, several factors (e.g., volatility, skin penetration, odor, irritation of the skin, eyes, and respiratory passages, leaf wilt, incapacitation reversibility, etc.) inherent to fatty acids may limit their practical use for certain applications as a biopesticide, especially when used at a high dosage.

[7] = test system: acetylcholine receptors; conditions: scale where acetylcholine is 100; Keyl et al., 1957; cited from earlier work
[8] = type: in vitro ADME
Source text: The C8910 fatty acids are volatile (Reifenrath, 2015b), and 24-61% of the applied dose evaporated exponentially from clay formulation applied to skin. Skin penetration will also limit duration for dermal treatments (e.g., about 50-75% of the applied dose of octanoic and decanoic acid penetrated cattle skin from mineral oil). To provide finer control of these modes of loss, the development of longer lasting controlled-release formulations (clay nanotubes, disintegrating granules, and microcapsules) for use as premises spray and direct skin application for protecting cattle against biting flies and ticks was investigated (Reifenrath, 2015c), with none of the carriers showing an extended duration. Since that time, however, it has been shown that an aqueous dilution (to 1% C8910) of an emulsifiable concentrate could achieve a similar duration of effectiveness (2-3 days after a single treatment) as the 15% oil formulation. […] The limited duration of such a formulation can be overcome by more frequent application (e.g. walk-through sprayers).

C[N+](C)(C)CCO.[Cl-] [Choline Chloride, 1.0%, Choline chloride]
% Incapacitation at 24 h (Mean +/− S.D., N = 3) [1]: 4 +/− 3% | % Incapacitation at 24 h (Mean +/− S.D., N = 3), Sensitive [2]: 0 +/− 0% | % Incapacitation at 24 h (Mean +/− S.D., N = 3), Kdr [3]: 2 +/− 4% | % Incapacitation at 24 h (Mean +/− S.D.) [4]: 0 +/− 0% | % Incapacitation at 24 h (Mean +/− S.D., N = 3) [5]: 0 +/− 0% | % Incapacitation at 24 h (Mean +/− S.D., N = 3) ([5]; listed as choline chloride): no effect | insecticidal effect [6]: little or no insecticidal effect

CCCC(=O)OCC[N+](C)(C)C [Formulation C4]
relative potency [7]: 100

CCCCC(=O)OCC[N+](C)(C)C [Formulation C5]
relative potency [7]: 54

CCCCCC(=O)OCC[N+](C)(C)C [Formulation C6]
relative potency [7]: 20

CCCCCCCCCC(=O)O [decanoic acid]
applied dose penetrated cattle skin [8]: 50-75%

CCCCCCCC(=O)O [octanoic acid]
applied dose penetrated cattle skin [8]: 50-75%
